Assay results reported in US9469878B2, “Methods of treating cancer comprising targeting NQO1” (The Board of Regents of the University of Texas System, priority 2010, dated 2016).

Experiments:
[1] = test system: PARP1 in A549 NSCLC cells; test: PAR formation, Western blot; assay type: cell-based, human; conditions: 25 mM, β-lap-treated A549 NSCLC cells
Experimental: Whole-cell extracts were prepared, proteins separated by SDSPAGE, and Western blots developed using SuperSignal® West Pico Chemiluminescent substrate (Thermo Scientific, Rockford, Ill.), and exposed using Autoradiography Film (Denville Scientific Inc., Metuchen, N.J.). An anti-human NQO1 antibody was kindly provided to us by Dr. David Ross (University of Colorado Health Science Center, Denver, Colo.) and used at a 1:5000 dilution overnight at 4° C.

PARP1 in MCF-7 cells = test: Western-blot analyses for PARP1 cleavage; assay type: cell-based, human; conditions: pre-treatment, 4 μM β-lap 2 h pulse
Experimental: For Western-blot analyses for PARP1 cleavage-MCF-7 cells seeded in 10 cm dishes were treated with 4 μM β-lap in the absence or presence of 1000 U of catalase dissolved in hepes buffer pH 7.4 for 2 h. Cells were then given fresh media and incubated at 37° C. for 24 h. Cells were then harvested in PARP1 lysis buffer. Lysates were resolved in 10% SDS-PAGE and immunoblotted onto PVDF membranes and probed with a monoclonal PARP1 antibody (SC-8007). […] Relative PAR levels were calculated by densitometric analyses by NIH ImageJ using PARP1 loading controls. Measurements were normalized to t=0 levels. Western blots shown are representative of separate experiments performed at least three times.

PC-3 cells = test: Intracellular NAD+ and ATP levels; assay type: cell-based, human; conditions: pre- and co-treatment, 2 or 3 Gy+3 μM β-lap
Experimental: ATP levels were analyzed from whole-cell extracts using CellTiter-Glo Luminescent Cell Viability Assays (Promega, Madison, Wis.) following the manufacture's instructions. Data were graphed as means±SE from at least three independent experiments in triplicates.

NQO1 [2] = target: T1, NQO1 (Homo sapiens, UniProt P15559, P187S); test: NQO1 enzyme assays using β-lapachone or the standard menadione substrates; assay type: biochemical; conditions: single value given
T1 construct: S9 Supernatants were prepared from cells in mid-log to late log phase growth; endogenous in cells; host or cells: cancer cell lines, mostly from a non-small cell lung cancer panel; S9 supernatants
Experimental: (§1) S9 Supernatants were prepared from cells in mid-log to late log phase growth. […] The cell suspensions were sonicated on ice four times, using 10-s pulses, and then centrifuged at 14,000×g for 20 min. The S9 supernatants were aliquoted into microcentrifuge tubes and stored at −80° C. until used. A 1× protease inhibitor cocktail was added to prevent enzyme activity degradation. […] Menadione was used as the electron acceptor. NADH was used as the electron donor.
(§2) NQO1 activity was measured using NADH (200 μM) as the immediate electron donor and menadione (10 μM) as the intermediate electron acceptor. […] Biochem. Biophys. […] NADH: cytochrome b5 reductase was measured using NADH (200 μM) as the electron donor, and […] was measured using NADPH (200 μM) as electron donor (45) in a Beckman DU 640 spectrophotometer (Beckman Coulter, Fullerton, Calif.). Reactions were carried out at 37° C. and were initiated by the addition of S9 supernatants. Varying amounts of supernatants, from 10 to 40 μL, were used to ensure linearity of rates with protein concentration. […] Results shown are the average enzyme activity for three separate cell extractions±S.D. or both values from duplicate experiments.
(§3) Cell lines, mostly from a 5-panel nonsmall cell lung cancer panel from the UT Southwestern SPORE, were assessed for NQO1 polymorphism status and then monitored for NQO1 enzyme assays using β-lapachone or the standard menadione substrates. […] NQO1*2/*2 and *3/*3 polymorphisms were detected from NQO1 *1/*1 wild-type sequences by PCR-RFLP. Genomic DNA was extracted from the cells using Qiagen spin columns. Using previously described oligonucleotide primers, PCR products underwent gel electrophoresis. Final genotyping was determined based on the size and pattern of separated bands diagnostic for *1/*1 (wild-type), or polymorphic *2/*2 or *3/*3 NQO1 polymorphisms.

NQO1 [3] = target: T2, NQO1 (Homo sapiens, UniProt P15559, R139W); test: as above; assay type: biochemical; conditions: menadione as substrate
T2 construct: S9 Supernatants were prepared from cells in mid-log to late log phase growth; endogenous in cells; host or cells: cancer cell lines, mostly from a non-small cell lung cancer panel (e.g. Calu-3); S9 supernatants
Experimental: as §1, §2, §3

NQO1 [4] = test: as above; assay type: biochemical, human; conditions: menadione as substrate
Experimental: as §1, §2, §3

NQO1 [5] = target: NQO1 (Homo sapiens, UniProt P15559); test: as above; assay type: biochemical; design: S9 Supernatants were prepared from cells in mid-log to late log phase growth; endogenous in cells; host or cells: cancer cell lines, mostly from a non-small cell lung cancer panel; S9 supernatants; conditions: menadione as substrate
Experimental: as §1, §2, §3

[6] = test system: MDA-MB-231 cells expressing NQO1 (231+); test: Long term survival assay; assay type: cell-based, human; conditions: 231-NQ+ cells
Experimental: Cells were cultured and treated as described above.
Data were expressed as relative survival (treated/control×100%).

[7] = test system: Human (shown) or mouse rbs; test: Hemolysis of red blood cells; assay type: cell-based; conditions: rbs incubated with HPβCD alone, HPβCD-β-lap, or β-lap alone in DMSO
Experimental: Human (shown) or mouse rbs were incubated with HPβCD alone or HPβCD-β-lap, or β-lap alone in DMSO.

Chain of NQO1 (Homo sapiens, UniProt P15559) (P15559 whole entry): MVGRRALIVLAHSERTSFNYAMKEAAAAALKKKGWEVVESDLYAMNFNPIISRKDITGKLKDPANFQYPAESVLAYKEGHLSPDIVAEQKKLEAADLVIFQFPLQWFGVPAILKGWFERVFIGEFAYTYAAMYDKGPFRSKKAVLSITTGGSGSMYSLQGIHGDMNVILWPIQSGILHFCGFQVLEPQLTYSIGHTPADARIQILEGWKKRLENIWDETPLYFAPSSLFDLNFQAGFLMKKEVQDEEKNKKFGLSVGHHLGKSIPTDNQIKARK
T1 sequence (P15559 whole entry P187S): as the sequence (P15559 whole entry) above, with P187S counted along it
T2 sequence (P15559 whole entry R139W): as the sequence (P15559 whole entry) above, with R139W counted along it

NC(=O)c1cccc(N)c1 [3-aminobenzamide]
Effect on PAR formation [1]: spares and delays PAR formation

CC(=O)OCOC(=O)CN(CC(=O)OCOC(C)=O)c1ccccc1OCCOc1ccccc1N(CC(=O)OCOC(C)=O)CC(=O)OCOC(C)=O [BAPTA-AM]
Effect on β-lap-mediated proteolysis of PARP1 and lethality (PARP1 in MCF-7 cells): prevented

O=C1NCCc2c(OCCCCN3CCCCC3)cccc21 [DPQ, 3,4-dihydro-5[4-(1-piperindinyl)butoxy]-1(2H)-isoquinoline]
Effect on synergistic losses of ATP (PC-3 cells): prevented

CC1=CC(=O)c2ccccc2C1=O [Men, menadione]
NQO1 activity, Men (NQO1 [2]; H596/NSCLC *2/*2): <1 ± 0.01 nmol/min/µg
NQO1 activity, Men (NQO1 [2]; H2882/NSCLC *2/*2): <1 ± 0.01 nmol/min/µg
NQO1 activity, Men (NQO1 [2]; HCC366/NSCLC *2/*2): <1 ± 0.01 nmol/min/µg
NQO1 activity, Men (NQO1 [2]; MDA-MB-231/Breast *2/*2): 1 ± 0.05 nmol/min/µg
NQO1 activity, Men (NQO1 [2]; MDA-MB-468/Breast *2/*2): <1 ± 0.01 nmol/min/µg
NQO1 activity, Men (NQO1 [3]; Calu-3/NSCLC *3/*3): 48 ± 3 nmol/min/µg
NQO1 activity, Men (NQO1 [3]; H2009/NSCLC *3/*3): 4.0 ± 1 nmol/min/µg
NQO1 activity, Men (NQO1 [3]; HCC1171/NSCLC *3/*3): 98 ± 17 nmol/min/µg
NQO1 activity, Men (NQO1 [3]; T47D/BreastCancer *3/*3): 32 ± 2 nmol/min/µg
NQO1 activity, Men (NQO1 [4]; H292 *1/*2): 169 +/− 17; ND nMoles/min/μg
NQO1 activity, Men (NQO1 [4]; HCC44 *1/*2): 148 ± 14 nmol/min/µg
NQO1 activity, Men (NQO1 [5]; H322 *1/*1): 1234 +/− 40; ND nMoles/min/μg
NQO1 activity, Men (NQO1 [5]; H1648 *1/*1): 1370 +/− 17; ND nMoles/min/μg
NQO1 activity, Men (NQO1 [5]; H1993 *1/*1): 1170 ± 30 nmol/min/µg
NQO1 activity, Men (NQO1 [5]; H2073 *1/*1): 1340 +/− 20; ND nMoles/min/μg

CC(=O)N[C@@H](CS)C(=O)O [NAC, N-acetyl-L-cysteine]
Effect on lethal effects of β-lap ([6]; pre- and co-treatments): protected against the lethal effects of 2 μM β-lap, but not 3 μM

Catalase
Catalase amount that significantly protected cells from the lethal effects of β-lap ([6]; exogenous catalase): ≥ 500 units

Z-VAD
Effect on β-lap-mediated proteolysis of PARP1 and lethality (PARP1 in MCF-7 cells): ineffective

hydroxypropyl-β-cyclodextrin [HPβCD]
Hemolysis [7]: caused significant hemolyses
